# According to the supplement of paper PMC10307832:
# Assays:
# Test in all cases: relative viability (nuclei count vs DMSO), 5 days (fraction); higher = more cells survive
# NCI-H1993 = system: NCI-H1993
# How it was run: (§1)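 Medians of duplicate plates are given as relative viability. That measure is the nuclei count in treated wells divided by the count in vehicle wells. Counts were taken on 4× images of lung cancer cell lines in 1536-well plates, 5 days after pin-tool dosing the day after seeding with one drug alone or a fixed anchor-drug dose plus five library-drug doses (not always all listed) in √10 steps.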
# NCI-H1915 = system: NCI-H1915
# How it was run: as §1
# A-427 = system: A-427
# How it was run: as §1
# SK-MES-1 = system: SK-MES-1
# How it was run: as §1
# BEN = system: BEN
# How it was run: as §1
# NCI-H460 = system: NCI-H460
# How it was run: as §1
# NCI-H2405 = system: NCI-H2405
# How it was run: as §1
# HCC-366 = system: HCC-366
# How it was run: as §1
# HOP-62 = system: HOP-62
# How it was run: as §1
# 201T = system: 201T
# How it was run: as §1
# LK-2 = system: LK-2
# How it was run: as §1
# COR-L 105 = system: COR-L 105
# How it was run: as §1
# EMC-BAC-2 = system: EMC-BAC-2
# How it was run: as §1
# NCI-H661 = system: NCI-H661
# How it was run: as §1
# HCC-15 = system: HCC-15
# How it was run: as §1
# EKVX = system: EKVX
# How it was run: as §1
# NCI-H1734 = system: NCI-H1734
# How it was run: as §1
# NCI-H647 = system: NCI-H647
# How it was run: as §1
# HCC-78 = system: HCC-78
# How it was run: as §1
# NCI-H522 = system: NCI-H522
# How it was run: as §1
# PC-14 = system: PC-14
# How it was run: as §1
# COR-L23 = system: COR-L23
# How it was run: as §1
smiles,measurement,setting,value
Cc1cn(-c2cc(NC(=O)c3ccc(C)c(Nc4nccc(-c5cccnc5)n4)c3)cc(C(F)(F)F)c2)cn1 [Nilotinib] + O=C(CCCCCCC(=O)Nc1ccccc1)NO [Vorinostat] (partner 1 µM),relative viability,NCI-H1993; first compound 0.001 µM,0.6
same,relative viability,NCI-H1993; first compound 0.003162 µM,0.655
same,relative viability,NCI-H1993; first compound 0.01 µM,0.843
same,relative viability,NCI-H1993; first compound 0.03162 µM,0.722
same,relative viability,NCI-H1993; first compound 0.1 µM,0.497
same,relative viability,NCI-H1915; first compound 0.001 µM,0.454
same,relative viability,NCI-H1915; first compound 0.003162 µM,0.488
same,relative viability,NCI-H1915; first compound 0.01 µM,0.501
same,relative viability,NCI-H1915; first compound 0.03162 µM,0.385
same,relative viability,NCI-H1915; first compound 0.1 µM,0.299
same,relative viability,A-427; first compound 0.001 µM,0.839
same,relative viability,A-427; first compound 0.003162 µM,0.892
same,relative viability,A-427; first compound 0.01 µM,0.935
same,relative viability,A-427; first compound 0.03162 µM,0.963
same,relative viability,A-427; first compound 0.1 µM,0.775
same,relative viability,SK-MES-1; first compound 0.001 µM,1.12
same,relative viability,SK-MES-1; first compound 0.003162 µM,0.623
same,relative viability,SK-MES-1; first compound 0.01 µM,1.33
same,relative viability,SK-MES-1; first compound 0.03162 µM,0.936
same,relative viability,SK-MES-1; first compound 0.1 µM,0.618
same,relative viability,BEN; first compound 0.001 µM,0.532
same,relative viability,BEN; first compound 0.003162 µM,0.556
same,relative viability,BEN; first compound 0.01 µM,0.723
same,relative viability,BEN; first compound 0.03162 µM,0.642
same,relative viability,BEN; first compound 0.1 µM,0.574
same,relative viability,NCI-H460; first compound 0.001 µM,0.428
same,relative viability,NCI-H460; first compound 0.003162 µM,0.996
same,relative viability,NCI-H460; first compound 0.01 µM,1.34
same,relative viability,NCI-H460; first compound 0.03162 µM,0.33
same,relative viability,NCI-H460; first compound 0.1 µM,0.535
same,relative viability,NCI-H2405; first compound 0.001 µM,0.946
same,relative viability,NCI-H2405; first compound 0.003162 µM,0.927
same,relative viability,NCI-H2405; first compound 0.03162 µM,0.763
same,relative viability,NCI-H2405; first compound 0.1 µM,0.521
same,relative viability,HCC-366; first compound 0.001 µM,0.33
same,relative viability,HCC-366; first compound 0.003162 µM,0.361
same,relative viability,HCC-366; first compound 0.01 µM,0.364
same,relative viability,HCC-366; first compound 0.03162 µM,0.27
same,relative viability,HCC-366; first compound 0.1 µM,0.212
same,relative viability,HOP-62; first compound 0.001 µM,0.625
same,relative viability,HOP-62; first compound 0.003162 µM,0.567
same,relative viability,HOP-62; first compound 0.01 µM,0.631
same,relative viability,HOP-62; first compound 0.03162 µM,0.479
same,relative viability,201T; first compound 0.001 µM,0.931
same,relative viability,201T; first compound 0.003162 µM,1.19
same,relative viability,201T; first compound 0.01 µM,1.22
same,relative viability,201T; first compound 0.1 µM,0.28
same,relative viability,LK-2; first compound 0.001 µM,0.261
same,relative viability,LK-2; first compound 0.003162 µM,0.23
same,relative viability,LK-2; first compound 0.01 µM,0.342
same,relative viability,LK-2; first compound 0.03162 µM,0.199
same,relative viability,LK-2; first compound 0.1 µM,0.27
same,relative viability,COR-L 105; first compound 0.001 µM,0.744
same,relative viability,COR-L 105; first compound 0.003162 µM,1.09
same,relative viability,COR-L 105; first compound 0.01 µM,0.81
same,relative viability,COR-L 105; first compound 0.03162 µM,0.76
same,relative viability,COR-L 105; first compound 0.1 µM,0.672
same,relative viability,EMC-BAC-2; first compound 0.001 µM,0.369
same,relative viability,EMC-BAC-2; first compound 0.003162 µM,0.339
same,relative viability,EMC-BAC-2; first compound 0.01 µM,0.429
same,relative viability,EMC-BAC-2; first compound 0.03162 µM,0.319
same,relative viability,EMC-BAC-2; first compound 0.1 µM,0.33
same,relative viability,NCI-H661; first compound 0.001 µM,0.792
same,relative viability,NCI-H661; first compound 0.003162 µM,0.889
same,relative viability,NCI-H661; first compound 0.01 µM,0.875
same,relative viability,NCI-H661; first compound 0.03162 µM,0.642
same,relative viability,NCI-H661; first compound 0.1 µM,0.615
same,relative viability,HCC-15; first compound 0.001 µM,0.791
same,relative viability,HCC-15; first compound 0.003162 µM,0.913
same,relative viability,HCC-15; first compound 0.01 µM,0.936
same,relative viability,HCC-15; first compound 0.03162 µM,0.616
same,relative viability,HCC-15; first compound 0.1 µM,0.761
same,relative viability,EKVX; first compound 0.001 µM,0.65
same,relative viability,EKVX; first compound 0.003162 µM,0.879
same,relative viability,EKVX; first compound 0.01 µM,0.704
same,relative viability,EKVX; first compound 0.03162 µM,0.55
same,relative viability,EKVX; first compound 0.1 µM,0.718
same,relative viability,NCI-H1734; first compound 0.001 µM,0.761
same,relative viability,NCI-H1734; first compound 0.003162 µM,0.803
same,relative viability,NCI-H1734; first compound 0.01 µM,0.832
same,relative viability,NCI-H1734; first compound 0.03162 µM,0.626
same,relative viability,NCI-H1734; first compound 0.1 µM,0.371
same,relative viability,NCI-H647; first compound 0.001 µM,0.433
same,relative viability,NCI-H647; first compound 0.003162 µM,0.671
same,relative viability,NCI-H647; first compound 0.01 µM,0.418
same,relative viability,NCI-H647; first compound 0.03162 µM,0.314
same,relative viability,NCI-H647; first compound 0.1 µM,0.245
same,relative viability,HCC-78; first compound 0.001 µM,0.483
same,relative viability,HCC-78; first compound 0.003162 µM,0.512
same,relative viability,HCC-78; first compound 0.01 µM,0.553
same,relative viability,HCC-78; first compound 0.03162 µM,0.4
same,relative viability,HCC-78; first compound 0.1 µM,0.565
same,relative viability,NCI-H522; first compound 0.01 µM,1.01
same,relative viability,NCI-H522; first compound 0.03162 µM,0.749
same,relative viability,NCI-H522; first compound 0.1 µM,0.786
same,relative viability,PC-14; first compound 0.001 µM,0.594
same,relative viability,PC-14; first compound 0.003162 µM,0.378
same,relative viability,PC-14; first compound 0.01 µM,0.756
same,relative viability,PC-14; first compound 0.03162 µM,0.604
same,relative viability,PC-14; first compound 0.1 µM,0.156
same,relative viability,COR-L23; first compound 0.001 µM,0.317
same,relative viability,COR-L23; first compound 0.003162 µM,0.347
same,relative viability,COR-L23; first compound 0.01 µM,0.406
same,relative viability,COR-L23; first compound 0.03162 µM,0.373
same,relative viability,COR-L23; first compound 0.1 µM,0.392
